Consider 89 compounds from ChEMBL document CHEMBL1157539, “Thousands of chemical starting points for antimalarial lead identification” (Nature, 2010).

The assay concerns Plasmodium falciparum. The assay is described as follows: GSK_TCMDC: Inhibition of Plasmodium falciparum 3D7 in whole erythrocytes, using parasite LDH activity as an index of growth. In kind it is functional, organism-based. Particulars: Plasmodium falciparum, 3D7.

`O=C(CNc1ccc(Cl)c(S(=O)(=O)N2CCCC2)c1)Nc1ccc(Br)cc1F`: the XC50 stood at 0.321 µM.

In turn, `CCc1ccc(C2CCN(CCCCNC(=O)c3ccc(NC(=O)c4ccc(Cl)cc4)cc3)CC2)c(OCCO)c1` gave an XC50 of 1.39 µM.

In the case of `O=C(Nc1ccc(OC2CCN(Cc3ccc(F)cc3)C2)c(Cl)c1)c1ccsc1` (centres undefined), the XC50 turned out to be 0.538 µM.

In turn, `COC(=O)c1ccc(CCC(C)NCC(O)c2cccc(Cl)c2)cc1` (centres undefined) had an XC50 of 0.67 µM.

The compound `COc1ccc(C2CC(=O)C3=C(C2)NC(C)=C(C(=O)OC2CCCC2)C3c2cccc(O)c2)cc1` (centres undefined) yielded an XC50 of 1.01 µM.

`CCN1CCC2(c3cccc(OC)c3)Cc3nc4ccccc4c(-c4ccccc4)c3CC2C1` (centres undefined) had an XC50 of 0.348 µM.

Regarding `CC(=O)Nc1ccc2[nH]cc(C3CCN(CC4CCN(C(=O)/C=C/c5ccc(Cl)c(Cl)c5)CC4)CC3)c2c1`, the XC50 came out at 0.723 µM.

Take `CCc1c(CCNCCCC(C)CCNCCc2ccc(OC)c(OC)c2CC)ccc(OC)c1OC` (centres undefined): the XC50 is 1.11 µM.

In turn, `O=C(Nc1ccccc1)N(Cc1ccccc1-c1cccc(CNCCc2ccccc2)c1)C1CCN(Cc2ccccc2)CC1` registered an XC50 of 0.176 µM.

Take `Cc1ccc(F)cc1S(=O)(=O)NCC(C)c1ccc(NC(=O)Nc2cccc(F)c2)cc1` (centres undefined): the XC50 amounted to 0.973 µM.

In turn, `CSc1ccc(CN2CCC(CNC(=O)c3cc(-c4ccccc4F)cs3)C2)cc1` (centres undefined) had an XC50 of 1.14 µM.

The compound `CCOc1ccc(-c2nonc2NC(=O)c2cccs2)cc1OCC` had an XC50 of 0.756 µM.

In turn, `COc1ccc(NC(=O)c2ccc(C=Cc3ccc(C(F)(F)F)cc3)cc2)cc1N1CCN(C)CC1` had an XC50 of 0.421 µM.

`O=C(/C=C/c1ccc(Cl)c(Cl)c1)NCCCCCN1CCC(NC(=O)c2ccc([N+](=O)[O-])cc2)CC1`: the XC50 stood at 0.672 µM.

The compound `CCc1sc(-c2cc(Cl)ccc2OC)nc1C(=O)NCCN1CCCCC1` came in with an XC50 of 0.938 µM.

With `COc1ccc2nccc([C@@H](O)CN3CCC(NCc4cc5ccccc5nc4O)CC3)c2c1`, the XC50 was 0.182 µM.

In turn, `Cc1noc(C)c1-c1ccc2c(Nc3ccccc3C(C)(C)C)c(C(=O)NC3CCCC3)cnc2c1` yielded an XC50 of 1.04 µM.

As to `CC1(C)NC(N)=NC(=N)N1OCCCOc1c(Cl)cc(Cl)cc1Cl`, the XC50 amounted to 0.00294 µM.

As for `COc1ccc(OC)c(Cc2c(C)nc3nc(N)nc(N)c3c2C)c1`, the XC50 was found to be 0.864 µM.

For `CCN(CC)CCN(Cc1ccc(-c2ccc(C(F)(F)F)cc2)cc1)C(=O)c1ccc(-c2ccc(NC(=O)OC)cc2C)cc1`, the XC50 stood at 0.929 µM.

Compound `CCOc1ccc(C2CCN(CCCCNC(=O)c3ccc(NC(=O)c4ccc(Cl)cc4)cc3)CC2)c(OCC)c1` came in with an XC50 of 0.677 µM.

`CCCC(=O)NC(c1cccs1)c1cc(Cl)c2cccnc2c1O` (centres undefined) registered an XC50 of 0.848 µM.

With `CC(=NNC(S)=NCCc1ccccn1)c1ccccn1`, the XC50 turned out to be 0.319 µM.

Turning to `CC(=O)Nc1ccc(Cl)c(Cl)c1`, the XC50 was 0.0416 µM.

`CC(NCC(O)Cn1c2ccccc2c2ccccc21)c1ccccc1` (centres undefined) registered an XC50 of 0.931 µM.

As for `O=C(NCCN1CCCCC1)c1ccc(Nc2nccc(Nc3ccc(Oc4ccccc4)cc3)n2)cc1`, the XC50 was determined as 0.553 µM.

`CC(C)(C)c1ccc(CN(C[C@@H](O)CNS(=O)(=O)c2cc(Cl)cc(Cl)c2)C(C)(C)C)cc1` returned an XC50 of 0.935 µM.

With `COC(=O)c1ccc(OCC(O)CO)cc1O` (centres undefined), the XC50 turned out to be 0.738 µM.

`Cc1nc2ccccc2c(O)c1[N+](=O)[O-]` returned an XC50 of 1.11 µM.

Take `CC(Cc1ccc(OCc2ccccc2)cc1)NCC(O)c1cccc(Cl)c1` (centres undefined): the XC50 was determined as 0.547 µM.

Compound `CC(C)Cn1cc(C2CCN(CCN3CCC(CNC(=O)c4ccc(NC(=O)c5ccc(Cl)cc5)cc4)CC3)CC2)c2ccccc21` displayed an XC50 of 0.251 µM.

Compound `Cc1noc(C)c1-c1cccc(CNCc2ccc(-c3cccc(-c4nc5cccc(C)c5[nH]4)c3)cc2)c1` registered an XC50 of 0.215 µM.

`O=C(C=Cc1cccs1)N(CCCn1ccnc1)c1nc2ccc(F)cc2s1` came in with an XC50 of 1.6 µM.

In the case of `O=C(NCCCN1CCC(Cc2ccccc2)CC1)c1cc2c(Cl)nc3ccccc3c2s1`, the XC50 was 0.744 µM.

With `O=C(Nc1ccc([N+](=O)[O-])cc1)Nc1cc(OCC(F)(F)F)cc(OCC(F)(F)F)c1`, the XC50 turned out to be 0.469 µM.

`Cc1ccccc1-c1nc2c(CN3CCC(O)(c4ccccc4)CC3)c(O)ccc2[nH]1` came in with an XC50 of 0.866 µM.

`O=C([C@H]1CCCCN1c1ccc([N+](=O)[O-])c2ccccc12)N1CCN(c2ncccn2)CC1` gave an XC50 of 0.199 µM.

In turn, `O=c1cc(NCCCNCc2cc(Br)cs2)[nH]c2ccccc12` registered an XC50 of 1.06 µM.

As to `CCCCC1(c2ccc(F)cc2)NC(=O)N(CC(=O)c2cc(C)n(Cc3ccco3)c2C)C1=O` (centres undefined), the XC50 came to 0.983 µM.

Turning to `CC(Cc1ccc(OCCCCOc2ccccc2)cc1)NCCCN1CCOCC1` (centres undefined), the XC50 was determined as 0.725 µM.

Turning to `Cc1cccc2nc(-c3ccc(-c4cccc(CN5CCCCC5)c4)s3)[nH]c12`, the XC50 was found to be 0.468 µM.

As for `Cc1cc(O)c(CNC2CCCCC2)cc1C`, the XC50 was 1.05 µM.

The compound `CC(=O)c1cc(N2CCOCC2)ccc1N` showed an XC50 of 0.913 µM.

In the case of `CN1CCCN(Cc2cccc(-c3cccc(NS(=O)(=O)c4cccc5cccnc45)c3)c2)CC1`, the XC50 came out at 0.764 µM.

`N=C(N)NN=Cc1c[nH]c2ccc(-c3ccccc3)cc12` yielded an XC50 of 0.528 µM.

With `CN1CCCN(c2ccnc3cc4c(cc23)N(C(=O)c2ccc(Cl)cc2)CC4)CC1`, the XC50 was found to be 0.791 µM.

With `CCCc1cc(=O)[nH]c(-n2nc(C)cc2NC(=O)c2cc3ccccc3o2)n1`, the XC50 was 1.11 µM.

For the compound `CC(=O)Nc1ccc(OCCCCN(Cc2ccccc2OC(F)(F)F)c2ccc(C(F)(F)F)c(C#N)c2)c(Cl)c1`, the XC50 worked out at 0.529 µM.

The compound `Cc1cc(O)c(-c2cc(C(=O)Nc3cccnc3)[nH]n2)cc1C` returned an XC50 of 0.772 µM.

As for `O=C(O)C1CC(=O)N(c2ccc(Cl)cc2)C1` (centres undefined), the XC50 is 0.219 µM.

On to `Cc1cc(=NN=Cc2cccc(Cl)c2)c2ccccc2[nH]1`, for which the XC50 came to 0.255 µM.

In the case of `CCCNC[C@@H](O)[C@H](Cc1ccccc1)NC(=O)c1cc(NCC)cc(N2CCCCS2(=O)=O)c1`, the XC50 was 0.224 µM.

As to `Cc1nc(-c2nc(NCc3ccccn3)ncc2-c2ccsc2)sc1C`, the XC50 was determined as 0.559 µM.

`CN1CC=C(c2c[nH]c3ccc(OCc4ccccc4)cc23)CC1` displayed an XC50 of 0.718 µM.

The compound `CN1CCCN(Cc2cccc(-c3ccc(NS(=O)(=O)c4cccc5cccnc45)cc3)c2)CC1` came in with an XC50 of 0.957 µM.

As for `Cc1ccc(NC(=O)c2c(C)noc2-c2snnc2C)cc1`, the XC50 was determined as 1.37 µM.

`CCCN1CCC(NCc2cn(C)nc2-c2ccc(Oc3ccccc3)cc2)CC1`: the XC50 amounted to 1.44 µM.

`O=C(Cc1ccc(Cl)cc1)Nc1cc(Cl)ccc1Cn1cnc(N2CCNCC2)cc1=O` registered an XC50 of 0.998 µM.

The compound `Cc1cc(O)c(C(C)C)cc1C1(c2cc(C(C)C)c(O)cc2C)OC(=O)c2ccccc21` had an XC50 of 0.871 µM.

The compound `N=C(N)NC(=O)Nc1ccc(Cl)c(Cl)c1` came in with an XC50 of 1.04 µM.

With `CCOc1ccc(CCC(=O)O)cc1OCC`, the XC50 was determined as 1.03 µM.

Regarding `N#Cc1ccc(OCCN(Cc2ccccc2C(F)(F)F)c2ccc(C#N)c(C(F)(F)F)c2)cc1`, the XC50 was 0.277 µM.

The compound `CCc1c(C)nc(-n2nc(C)cc2NC(=O)C(CC)c2ccccc2)[nH]c1=O` (centres undefined) came in with an XC50 of 0.714 µM.

Consider `CCCCCCN1CCCN(Cc2ccc(C(=O)Nc3ccc(CCC)cc3)cc2)CC1`, for which the XC50 worked out at 0.661 µM.

For `CCOC(=O)C(=O)N1c2ccc(OCC)cc2-c2c(ssc2=S)C1(C)C`, the XC50 stood at 0.216 µM.

In the case of `N#Cc1ccc2c(c1)CCN(CCC1CCC(NC(=O)/C=C/c3c[nH]c4ccc(F)cc34)CC1)CC2` (centres undefined), the XC50 turned out to be 0.692 µM.

`COc1ccc(NC(=O)[C@H](CC(C)C)Nc2cc(C)nc(NCCc3ccccc3OC)n2)cc1` came in with an XC50 of 0.988 µM.

`CN(C)C(CNC(=O)c1cc(-c2ccncc2)c(-c2ccc(NC(=O)Nc3cccc(Cl)c3)cc2)o1)c1ccccc1` (centres undefined): the XC50 was 0.183 µM.

Regarding `COc1ccccc1-c1csc(C(=O)NC2CCCCN(Cc3ccc(C(C)(C)C)cc3)C2)c1` (centres undefined), the XC50 turned out to be 1.53 µM.

In turn, `CNCc1ccc2nc(-c3coc(Cc4cc(Cl)ccc4OCC(C)C)n3)[nH]c2c1` registered an XC50 of 0.838 µM.

`Cc1cccc2nc(-c3ccc(-c4cccc(CN5CC(C)OC(C)C5)c4)s3)[nH]c12` (centres undefined) had an XC50 of 0.757 µM.

As for `N=C(N)Nc1nc(-c2cccc(NC(=O)C(F)(F)F)c2)cs1`, the XC50 was 1.05 µM.

With `Fc1cccc(COc2ccc(Nc3ncnc4sc(C#CCNC5CCCC5)cc34)cc2Cl)c1`, the XC50 worked out at 0.782 µM.

In turn, `Cc1cc(NCC2CCN(CC3CCCCC3)C2)nc(Nc2ccc(Br)cc2)n1` (centres undefined) showed an XC50 of 0.879 µM.

The compound `C[C@@H](Oc1cc(-n2cnc3cc(SCCN4CCN(C)CC4)ccc32)sc1C(N)=O)c1ccccc1Cl` had an XC50 of 0.507 µM.

Compound `CC(C)[C@@H](C(=O)NCc1cccc(C(F)(F)F)c1)N1C(=O)CCC1C(=O)Nc1ccc([N+](=O)[O-])cc1` (some centres undefined) came in with an XC50 of 0.934 µM.

`Cc1cc(NCCc2ccccc2)nc(NC(=N)Nc2ccc(Cl)cc2)n1` registered an XC50 of 0.232 µM.

`CCCCN(CCCC)CCNC(=O)c1cc(OC(F)(F)F)ccc1O` yielded an XC50 of 0.92 µM.

On to `CCCNCc1ccc(-c2ccc(CN(C(=O)c3nn(-c4ccccc4)nc3C)C3CC3)cc2)nc1`, for which the XC50 is 0.21 µM.

In turn, `Cn1cncc1C(=O)NC1CCN(c2ccnc(Nc3ccc(F)cc3)n2)C1` (centres undefined) gave an XC50 of 0.832 µM.

In the case of `CN(Cc1cccc(C#N)c1)C1CCN(c2cc(NC(=O)c3ccc(F)cc3)ccn2)CC1`, the XC50 was 1.07 µM.

Take `CCOc1cc(CC)ccc1C1CCN(CCN2CCC(CNC(=O)c3ccc(-c4ccc(C#N)cc4)cc3)CC2)CC1`: the XC50 came out at 0.708 µM.

`CCCN(C(=O)c1ccccc1C)c1nnc(-c2cccc(C)c2)s1` returned an XC50 of 0.896 µM.

`O=c1cc(NCCCNCc2csc(Br)c2Sc2ccc(Cl)cc2)[nH]c2ccccc12` displayed an XC50 of 0.849 µM.

`Brc1cc(CNCCCNc2nc3ccccc3[nH]2)sc1Br` yielded an XC50 of 0.221 µM.

Regarding `CN(c1ccc2c(c1)nc(Nc1cc(C(C)(C)C)on1)n2C)c1ccnc(Nc2ccc(CS(C)(=O)=O)cc2)n1`, the XC50 was found to be 0.9 µM.

`O=C1C(c2ccccc2)=C(Nc2cccc(OC(F)(F)C(F)F)c2)c2ccccc21` had an XC50 of 0.18 µM.

The compound `CC[C@H]1CN2CC[C@H]1C[C@H]2[C@H](O)c1cc(-c2ccc(SC)cc2)nc2ccc(OC)cc12` displayed an XC50 of 0.0641 µM.

As to `CN(c1ccc2c(c1)nc(NC(=O)C1(c3cc(F)ccc3F)CC1)n2C)c1ccnc(Nc2cccc(CS(C)(=O)=O)c2)n1`, the XC50 was 1.1 µM.
